According to ChEMBL document CHEMBL1909046, “DrugMatrix in vitro pharmacology data”:

Legend:
[1] = biological target: Beta-1 adrenergic receptor (Homo sapiens, UniProt P08588); assay: DRUGMATRIX: Adrenergic beta1 radioligand binding (ligand: [125I] Cyanopindolol); assay type: cell membranes, CHO-K1, Membrane; settings: Not Active = under 50% inhibition at 10 µM
[2] = biological target: Sodium-dependent noradrenaline transporter (Homo sapiens, UniProt P23975); assay: DRUGMATRIX: Norepinephrine Transporter radioligand binding (ligand: [125I] RTI-55); assay type: cell membranes, MDCK, Membrane; settings: mdck; Not Active = under 50% inhibition at 10 µM
Chain of Sodium-dependent noradrenaline transporter (P23975 whole entry): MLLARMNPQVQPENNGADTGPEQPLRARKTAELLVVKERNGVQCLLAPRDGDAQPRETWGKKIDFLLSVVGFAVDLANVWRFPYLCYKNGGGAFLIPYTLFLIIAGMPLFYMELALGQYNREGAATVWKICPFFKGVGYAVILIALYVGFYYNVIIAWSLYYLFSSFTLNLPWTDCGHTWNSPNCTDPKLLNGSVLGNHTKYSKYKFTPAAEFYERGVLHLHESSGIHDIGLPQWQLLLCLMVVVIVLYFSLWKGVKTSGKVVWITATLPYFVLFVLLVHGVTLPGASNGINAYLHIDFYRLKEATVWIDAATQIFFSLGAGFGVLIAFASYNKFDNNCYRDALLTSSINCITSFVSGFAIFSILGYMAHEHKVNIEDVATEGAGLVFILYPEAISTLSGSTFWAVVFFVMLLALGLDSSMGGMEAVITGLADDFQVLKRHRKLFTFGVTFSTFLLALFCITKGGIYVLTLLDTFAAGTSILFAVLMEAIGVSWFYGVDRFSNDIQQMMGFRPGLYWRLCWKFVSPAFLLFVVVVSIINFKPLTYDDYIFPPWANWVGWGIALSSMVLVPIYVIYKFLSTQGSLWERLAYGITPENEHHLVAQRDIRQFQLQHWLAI

[3] = biological target: 5-hydroxytryptamine receptor 6 (Homo sapiens, UniProt P50406); assay type: cell membranes, HeLa, Membrane; also: in other assays of this panel Not Active means under 50% inhibition at 10 µM
Chain of 5-hydroxytryptamine receptor 6 (P50406 whole entry): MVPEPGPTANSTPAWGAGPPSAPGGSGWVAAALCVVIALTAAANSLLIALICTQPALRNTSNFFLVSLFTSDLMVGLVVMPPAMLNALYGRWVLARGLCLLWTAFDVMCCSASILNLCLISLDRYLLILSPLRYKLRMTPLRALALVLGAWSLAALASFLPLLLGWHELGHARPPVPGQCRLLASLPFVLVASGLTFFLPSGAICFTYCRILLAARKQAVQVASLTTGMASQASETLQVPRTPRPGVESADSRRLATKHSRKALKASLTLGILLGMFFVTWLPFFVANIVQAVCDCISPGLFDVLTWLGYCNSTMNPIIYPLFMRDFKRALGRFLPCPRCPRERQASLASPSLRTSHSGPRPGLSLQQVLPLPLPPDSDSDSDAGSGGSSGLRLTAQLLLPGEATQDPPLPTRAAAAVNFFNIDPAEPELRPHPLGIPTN

[4] = biological target: T1, Neuropeptide Y receptor type 2 (Homo sapiens, UniProt P49146); assay type: cell membranes, KAN-TS, Membrane; settings: kan-ts; also: in other assays of this panel Not Active means under 50% inhibition at 10 µM
T1 sequence (P49146 whole entry): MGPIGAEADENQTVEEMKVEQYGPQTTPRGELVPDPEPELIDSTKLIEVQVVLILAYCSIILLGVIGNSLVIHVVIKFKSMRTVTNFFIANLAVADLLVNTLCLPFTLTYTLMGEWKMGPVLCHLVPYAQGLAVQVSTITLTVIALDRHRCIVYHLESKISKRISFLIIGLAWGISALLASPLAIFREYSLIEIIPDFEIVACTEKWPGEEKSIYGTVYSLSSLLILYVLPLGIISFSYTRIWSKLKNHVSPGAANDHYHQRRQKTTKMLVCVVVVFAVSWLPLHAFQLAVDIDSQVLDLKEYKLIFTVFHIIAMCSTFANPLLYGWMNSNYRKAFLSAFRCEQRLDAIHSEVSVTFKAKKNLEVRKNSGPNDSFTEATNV

[5] = DRUGMATRIX: Platelet-Derived Growth Factor (PDGF) radioligand binding (ligand: [125I] PDGF); assay type: cell-based; settings: nih3t3; Not Active = under 50% inhibition at 10 µM
[6] = biological target: Protein phosphatase 3 catalytic subunit alpha (Homo sapiens, UniProt Q08209); design: species or system Escherichia coli;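 also: inhibition of calcineurin (PP2B) enzyme activity, measured with DiFMUP as the substrate; in other assays of this panel Not Active means under 50% inhibition at 10 µM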

Chain of Beta-1 adrenergic receptor (P08588 whole entry): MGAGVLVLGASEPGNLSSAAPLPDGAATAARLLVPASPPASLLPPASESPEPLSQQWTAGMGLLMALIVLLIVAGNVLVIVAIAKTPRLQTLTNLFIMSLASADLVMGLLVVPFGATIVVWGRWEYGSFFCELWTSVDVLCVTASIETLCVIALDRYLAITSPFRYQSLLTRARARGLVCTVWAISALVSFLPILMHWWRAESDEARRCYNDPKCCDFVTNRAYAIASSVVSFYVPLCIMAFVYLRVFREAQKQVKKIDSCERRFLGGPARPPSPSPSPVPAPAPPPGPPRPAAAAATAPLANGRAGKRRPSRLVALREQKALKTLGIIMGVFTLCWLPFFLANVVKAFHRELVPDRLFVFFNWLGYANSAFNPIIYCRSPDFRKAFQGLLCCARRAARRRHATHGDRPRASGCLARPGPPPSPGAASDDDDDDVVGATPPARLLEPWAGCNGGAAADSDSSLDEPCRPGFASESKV

| SMILES | IC50 ([1]; cho-k1) | IC50 [2] | IC50 ([3]; hela) | IC50 [4] | IC50 [5] | Ki [5] | IC50 [6] | IC50 ([3]; read-out: IC50) [nM] | Ki ([3]; read-out: Ki) [nM] | IC50 ([1]; read-out: IC50) [nM] | Ki ([1]; read-out: Ki) [nM] |
| --- | --- | --- | --- | --- | --- | --- | --- | --- | --- | --- | --- |
| C[C@@H]1CC[C@@]2(OC1)O[C@H]1[C@@H](O)[C@H]3[C@@H]4CC[C@H]5C[C@@H](O[C@@H]6O[C@H](CO)[C@H](O[C@@H]7O[C@H](CO)C(O)[C@H](O[C@@H]8OC[C@@H](O)[C@H](O)[C@H]8O)[C@H]7O[C@@H]7O[C@H](CO)[C@H](O)[C@H](O[C@@H]8O[C@H](CO)[C@@H](O)[C@H](O)[C@H]8O)[C@H]7O)[C@H](O)[C@H]6O)[C@H](O)C[C@]5(C)[C@H]4CC[C@]3(C)[C@H]1[C@@H]2C (stereo partly specified) [DIGITONIN] | Not Active | Not Active | Not Active | Not Active | Not Active | Not Active | Not Active |  |  |  |  |
| OC(CCCN1CCCCC1)(c1ccccc1)c1ccccc1 [DIPHENIDOL] | Not Active | Not Active | Not Active | Not Active | Not Active | Not Active | Not Active |  |  |  |  |
| C[C@H]1O[C@@H](n2cc(F)c(=O)[nH]c2=O)[C@H](O)[C@@H]1O [DOXIFLURIDINE] | Not Active | Not Active | Not Active | Not Active | Not Active | Not Active | Not Active |  |  |  |  |
| Cn1c(=O)c2c(ncn2CC(O)CO)n(C)c1=O (stereo unspecified) [DYPHYLLINE] | Not Active | Not Active | Not Active | Not Active | Not Active | Not Active | Not Active |  |  |  |  |
| CC[C@H]1CN2CCc3cc(OC)c(OC)cc3[C@@H]2C[C@@H]1C[C@H]1NCCc2cc(OC)c(OC)cc21 [EMETINE] | Not Active | Not Active | Not Active | Not Active | Not Active | Not Active | Not Active |  |  |  |  |
| C[C@@H](CO)NC(=O)[C@@H]1C=C2c3cccc4[nH]cc(c34)C[C@H]2N(C)C1 [ERGONOVINE] | Not Active | Not Active |  | Not Active | Not Active | Not Active | Not Active | 3.24 | 1.5 |  |  |
| COC(=O)CCc1ccc(OCC(O)CNC(C)C)cc1 (stereo unspecified) [ESMOLOL] |  | Not Active | Not Active | Not Active | Not Active | Not Active | Not Active |  |  | 197 | 114 |
| CCC1(C)CC(=O)NC1=O (stereo unspecified) [ETHOSUXIMIDE] | Not Active | Not Active | Not Active | Not Active | Not Active | Not Active | Not Active |  |  |  |  |
| C#C[C@]1(OC(C)=O)CC[C@H]2[C@@H]3CCC4=C[C@@H](OC(C)=O)CC[C@@H]4[C@H]3CC[C@@]21C [ETHYNODIOL DIACETATE] | Not Active | Not Active | Not Active | Not Active | Not Active | Not Active | Not Active |  |  |  |  |
| COc1cc([C@@H]2c3cc4c(cc3[C@@H](O[C@@H]3O[C@@H]5CO[C@@H](C)O[C@H]5[C@H](O)[C@H]3O)[C@H]3COC(=O)[C@H]23)OCO4)cc(OC)c1O [ETOPOSIDE] | Not Active | Not Active | Not Active | Not Active | Not Active | Not Active | Not Active |  |  |  |  |
| C=CCc1ccc(O)c(OC)c1 [EUGENOL] | Not Active | Not Active | Not Active | Not Active | Not Active | Not Active | Not Active |  |  |  |  |
| CC(C(=O)O)c1cccc(Oc2ccccc2)c1 (stereo unspecified) [FENOPROFEN] | Not Active | Not Active | Not Active | Not Active | Not Active | Not Active | Not Active |  |  |  |  |
| CC(C)(C)NC(=O)[C@H]1CC[C@H]2[C@@H]3CC[C@H]4NC(=O)C=C[C@]4(C)[C@H]3CC[C@]12C [FINASTERIDE] | Not Active | Not Active | Not Active | Not Active | Not Active | Not Active | Not Active |  |  |  |  |
| COc1ccc2c3c1O[C@H]1C[C@@H](O)C=C[C@@]31CCN(C)C2 [GALANTAMINE] | Not Active | Not Active | Not Active | Not Active | Not Active | Not Active | Not Active |  |  |  |  |
| Nc1ccn([C@@H]2O[C@H](CO)[C@@H](O)C2(F)F)c(=O)n1 [GEMCITABINE] | Not Active | Not Active | Not Active | Not Active | Not Active | Not Active | Not Active |  |  |  |  |
| CC(C)=CCC/C(C)=C/CO [GERANIOL] | Not Active | Not Active | Not Active | Not Active | Not Active | Not Active | Not Active |  |  |  |  |

| SMILES | IC50 ([1]; cho-k1) | IC50 [2] | IC50 ([3]; hela) | IC50 [4] | IC50 [5] | Ki [5] | IC50 [6] | IC50 ([3]; read-out: IC50) [nM] | Ki ([3]; read-out: Ki) [nM] | IC50 ([1]; read-out: IC50) [nM] | Ki ([1]; read-out: Ki) [nM] |
| --- | --- | --- | --- | --- | --- | --- | --- | --- | --- | --- | --- |
| N=C(N)NC(=O)Cc1c(Cl)cccc1Cl [GUANFACINE] | Not Active | Not Active | Not Active | Not Active | Not Active | Not Active | Not Active |  |  |  |  |
| Oc1c(Cl)cc(Cl)c(Cl)c1Cc1c(O)c(Cl)cc(Cl)c1Cl [HEXACHLOROPHENE] | Not Active | Not Active | Not Active | Not Active | Not Active | Not Active | Not Active |  |  |  |  |
| NNc1nncc2ccccc12 [HYDRALAZINE] | Not Active | Not Active | Not Active | Not Active | Not Active | Not Active | Not Active |  |  |  |  |
| CC(=O)[C@@]1(O)CC[C@H]2[C@@H]3CCC4=CC(=O)CC[C@]4(C)[C@H]3CC[C@@]21C [HYDROXYPROGESTERONE] | Not Active | Not Active | Not Active | Not Active | Not Active | Not Active | Not Active |  |  |  |  |
| COC1=C(OC)C(=O)C(CCCCCCCCCCO)=C(C)C1=O [IDEBENONE] | Not Active | Not Active | Not Active | Not Active | Not Active | Not Active | Not Active |  |  |  |  |
| CC(C)NNC(=O)c1ccncc1 [IPRONIAZID] | Not Active | Not Active | Not Active | Not Active | Not Active | Not Active | Not Active |  |  |  |  |
| Cc1c(OCC(F)(F)F)ccnc1C[S+]([O-])c1nc2ccccc2[nH]1 (stereo unspecified) [LANSOPRAZOLE] | Not Active | Not Active | Not Active | Not Active | Not Active | Not Active | Not Active |  |  |  |  |
| O=c1cc(N2CCOCC2)oc2c(-c3ccccc3)cccc12 [LY-294002] | Not Active | Not Active | Not Active | Not Active | Not Active | Not Active | Not Active |  |  |  |  |
| COc1ccc2[nH]cc(CCNC(C)=O)c2c1 [MELATONIN] | Not Active | Not Active | Not Active | Not Active | Not Active | Not Active | Not Active |  |  |  |  |
| NC(=O)C[S+]([O-])C(c1ccccc1)c1ccccc1 (stereo unspecified) [MODAFINIL] | Not Active | Not Active | Not Active | Not Active | Not Active | Not Active | Not Active |  |  |  |  |
| CCN(CC)CCOCCC1=CCC2CC1C2(C)C (stereo unspecified) [MYRTECAINE] | Not Active | Not Active | Not Active | Not Active | Not Active | Not Active | Not Active |  |  |  |  |
| O=C(O)c1cccnc1Nc1cccc(C(F)(F)F)c1 [NIFLUMIC ACID] | Not Active | Not Active | Not Active | Not Active | Not Active | Not Active | Not Active |  |  |  |  |
| O=C(N/N=C/c1ccc([N+](=O)[O-])o1)c1cc([N+](=O)[O-])cc([N+](=O)[O-])c1O [NIFURSOL] | Not Active | Not Active | Not Active | Not Active | Not Active | Not Active | Not Active |  |  |  |  |
| COC(=O)Nc1nc2ccc(C(=O)c3cccs3)cc2[nH]1 [NOCODAZOLE] | Not Active | Not Active | Not Active | Not Active | Not Active | Not Active | Not Active |  |  |  |  |
| C#CC1(O)CC[C@H]2[C@@H]3CCC4=CC(=O)CC[C@@H]4[C@H]3CC[C@@]21CC (stereo partly specified) [NORGESTREL] | Not Active | Not Active | Not Active | Not Active | Not Active | Not Active | Not Active |  |  |  |  |
| COC(=O)Nc1nc2ccc([S+]([O-])c3ccccc3)cc2[nH]1 (stereo unspecified) [OXFENDAZOLE] | Not Active | Not Active | Not Active | Not Active | Not Active | Not Active | Not Active |  |  |  |  |
